# Measurements reported in PMC6308302, “Identification of Pharmacokinetic Markers for Guanxin Danshen Drop Pills in Rats by Combination of Pharmacokinetics, Systems Pharmacology, and Pharmacodynamic Assays” (Frontiers in Pharmacology, 2018).
# “Also recorded” adds a separate entry of the source. Marks after values point to notes of the source that are not given here.
# Assays:
# [1] = Stability tests in rat plasma (QC samples, HPLC-MS); conditions: n=5
# Text: Accuracy and precision were expressed by relative error (RE) and coefficient of variance (RSD), respectively.
# [2] = Aqueous solubility test (vortexing in water); assay type: physicochemical; conditions: thermodynamic from solid; determined, water, 25 °C, 1 atm
# Experimental: Aqueous solubility (S) test of the 17 ingredients was performed by vortexing 10 mg of each ingredient in […] water in a test tube at ambient temperature and 1 atm. After vortexing for 5 min, if the solution is clear, the tested object will be considered as soluble in water. In silico assessment of the physicochemical properties governing permeation and intestinal absorption was carried out for the 17 ingredients studied. Theory aqueous solubility (S) was calculated with ALOGPS 2.1 online software via the Virtual Computational Chemistry Laboratory service (Chemoinformatics Group, Neuherberg, Germany) (VCCLAB^1). The octanol–water partition coefficient (cLogP), the total hydrogen bond count (donors and acceptors), and topological polar surface area (TPSA) were determined using the Molinspiration Property Calculator (Molinspiration Cheminformatics, Bratislava, Slovak Republic^2). Lipinski’s rule of 5 was used to predict the permeability of the compound ([Lipinski et al., 2001]).
# [3] = Multiple component PK study in rat plasma after p.o. GDDP (HPLC-MS); conditions: for determination in rat plasma at the planned successive PK time points / detection in rat plasma: GDDP 0.8 g/kg p.o.; for determination in rat plasma at the planned successive PK time points: 5, 10, 15, 30, 45, 60, and 120 min, LOQ 1.0–1.4 ng/mL; for detection in rat plasma: at 5, 10, 15, 30, 45, or 60 min, LOD 0.5–0.7 ng/mL; for AUC(0-inf) / AUC(0-t) / MRT inf / MRT last / Tmax / Cmax / half-life: Sprague-Dawley, rat, plasma, po
# [4] = tested on: isoprenaline-induced MI in mice; assay: In vivo anti-MI study: isoprenaline-induced myocardial injury (ECG, H&E histology); conditions: for Histopathology of heart tissue (H&E): 40 mg/kg; for ECG (lead II) findings on the fifth day of the trial: 40 mg/kg p.o., isoprenaline 5 mg/kg on days 4 and 5
# Caco-2 cell monolayers = conditions: ref Lu et al., 2008, Liu et al., 2009, Hu et al., 2014, Bowles et al., 2017, cited from earlier work; for Papp(apical→basolateral) / Papp(basolateral→apical): Caco-2 cell monolayers, from literature; for apparent permeability in Caco-2 cell monolayers: previous results
# [5] = 24h in auto-sampler vials, spiked 2 ng/mL
# [6] = 24h in auto-sampler vials, spiked 400 ng/mL
# [7] = 24h in auto-sampler vials, spiked 1600 ng/mL
# [8] = Placing plasma for 6h at 4°C, spiked 2 ng/mL
# [9] = Placing plasma for 6h at 4°C, spiked 400 ng/mL
# [10] = Placing plasma for 6h at 4°C, spiked 1600 ng/mL
# [11] = three freeze-thaw cycles, rat plasma, spiked 2 ng/mL
# [12] = three freeze-thaw cycles, rat plasma, spiked 400 ng/mL
# [13] = three freeze-thaw cycles, rat plasma, spiked 1600 ng/mL
# [14] = 0.4 g/kg, Cmax, rat plasma, GDDP 0.4 g/kg p.o. (Low dose group), n=3
# [15] = 0.4 g/kg, t1/2 β, rat plasma, GDDP 0.4 g/kg p.o. (Low dose group), n=3
# [16] = 0.8 g/kg, Cmax (high / low plasma drug concentrations), rats, GDDP 0.4 and 0.8 g/kg p.o., classification
# [17] = 0.8 g/kg, Cmax, rat plasma, GDDP 0.8 g/kg p.o. (High dose group), n=3
# [18] = 0.8 g/kg, t1/2 β (fast / slow elimination type), rats, GDDP 0.4 and 0.8 g/kg p.o., classification
# [19] = 0.8 g/kg, t1/2 β, rat plasma, GDDP 0.8 g/kg p.o. (High dose group), n=3
# [20] = rat plasma, GDDP 0.4 g/kg p.o. (Low dose group), n=3
# [21] = rat plasma, GDDP 0.8 g/kg p.o. (High dose group), n=3
# [22] = 40 mg/kg p.o. for 7 days, isoprenaline-induced MI
compound,measurement,setting,value
"CC(C)=CCC[C@](C)(O[C@@H]1O[C@H](CO[C@@H]2O[C@H](CO)[C@@H](O)[C@H](O)[C@H]2O)[C@@H](O)[C@H](O)[C@H]1O)[C@H]1CC[C@]2(C)[C@@H]1[C@H](O)C[C@@H]1[C@@]3(C)CC[C@H](O[C@@H]4O[C@H](CO)[C@@H](O)[C@H](O)[C@H]4O[C@@H]4O[C@H](CO)[C@@H](O)[C@H](O)[C@H]4O)C(C)(C)[C@@H]3CC[C@]12C [Rb1, ginsenoside Rb1]",Stability: Measured,[1]; [5],1.97 ± 0.29 ng/mL
same,Stability: RE,[1]; [5],-1.62%
same,Stability: Measured,[1]; [6],386.10 ± 20.53 ng/mL
same,Stability: RE,[1]; [6],-3.47%
same,Stability: Measured,[1]; [7],1540.64 ± 55.53 ng/mL
same,Stability: RE,[1]; [7],-3.71%
same,Stability: Measured,[1]; [8],1.66 ± 0.17 ng/mL
same,Stability: RE,[1]; [8],-16.86%
same,Stability: Measured,[1]; [9],376.87 ± 18.97 ng/mL
same,Stability: RE,[1]; [9],-5.78%
same,Stability: Measured,[1]; [10],1647.48 ± 31.81 ng/mL
same,Stability: RE,[1]; [10],2.97%
same,Stability: Measured,[1]; [11],1.75 ± 0.23 ng/mL
same,Stability: RE,[1]; [11],-12.42%
same,Stability: Measured,[1]; [12],394.28 ± 21.32 ng/mL
same,Stability: RE,[1]; [12],-1.43%
same,Stability: Measured,[1]; [13],1601.88 ± 26.56 ng/mL
same,Stability: RE,[1]; [13],0.12%
same,solubility at 5 min,[2],> 10000 µg/mL
same,determination in rat plasma at the planned successive PK time points,[3],could be determined
same,detection in rat plasma,[3],could be detected
same,AUC(0-inf),[3]; 0.4 g/kg,1930 ± 1300 ng·h/mL
same,AUC(0-t),[3]; 0.4 g/kg,818 ± 272 ng·h/mL
same,MRT inf,[3]; 0.4 g/kg,36.6 ± 17.7 h
same,MRT last,[3]; 0.4 g/kg,11.42 ± 0.11 h
same,Tmax,[3]; 0.4 g/kg,3.25 ± 3.89 h
same,Cmax,[3]; [14],57 ± 27.3 ng/mL
same,half-life,[3]; [15],22.9 ± 12.4 h
same,AUC(0-inf),[3]; 0.8 g/kg,1350 ± 486 ng·h/mL
same,AUC(0-t),[3]; 0.8 g/kg,998 ± 200 ng·h/mL
same,MRT inf,[3]; 0.8 g/kg,17.1 ± 4.98 h
same,MRT last,[3]; 0.8 g/kg,9.63 ± 0.6 h
same,Tmax,[3]; 0.8 g/kg,3.34 ± 3.05 h
same,Cmax,[3]; [16],> 20 ng/mL
same,Cmax,[3]; [17],80.3 ± 19.2 ng/mL
same,half-life,[3]; [18],> 2.6 h
same,half-life,[3]; [19],10.8 ± 4.03 h
same,Cltot,[3]; [20],18 ± 12 mL/min/kg
same,Cltot,[3]; [21],43.2 ± 13.5 mL/min/kg
same,"systematic exposure (AUC0-∞), times higher than those of CTS and DHTS","[3]; rats, p.o. GDDP, P < 0.05",84–1137 times
same,"systematic exposure (AUC0-∞), times higher than those of Rd, R1, Rg1, TS IIA, and TS I","[3]; rats, p.o. GDDP, P < 0.05",3.5–30 times
same,anti-MI effect (overall conclusion),[4]; [22],favorable anti-MI effect
same,Histopathology of heart tissue (H&E),[4]; [22],"less severe histological damage with mild cell distortion, edema, and good continuity with adjacent myofibrils"
same,ECG (lead II) findings on the fifth day of the trial,[4],T waves reversed or decreased
same,Papp(apical→basolateral),Caco-2 cell monolayers,> 0.1^c ×10^-6 cm/s
same,Papp(basolateral→apical),Caco-2 cell monolayers,> 0.1^c ×10^-6 cm/s
same,apparent permeability in Caco-2 cell monolayers,Caco-2 cell monolayers,> 10^-7 cm/s
"CC(C)=CCC[C@](C)(O[C@@H]1O[C@H](CO)[C@@H](O)[C@H](O)[C@H]1O)[C@H]1CC[C@]2(C)[C@@H]1[C@H](O)C[C@@H]1[C@@]3(C)CC[C@H](O[C@@H]4O[C@H](CO)[C@@H](O)[C@H](O)[C@H]4O[C@@H]4O[C@H](CO)[C@@H](O)[C@H](O)[C@H]4O)C(C)(C)[C@@H]3CC[C@]12C [Rd, ginsenoside Rd]",Stability: Measured,[1]; [5],1.93 ± 0.23 ng/mL
same,Stability: RE,[1]; [5],-3.59%
same,Stability: Measured,[1]; [6],406.43 ± 27.13 ng/mL
same,Stability: RE,[1]; [6],1.61%
same,Stability: Measured,[1]; [7],1489.53 ± 52.70 ng/mL
same,Stability: RE,[1]; [7],-6.90%
same,Stability: Measured,[1]; [8],1.65 ± 0.33 ng/mL
same,Stability: RE,[1]; [8],-17.56%
same,Stability: Measured,[1]; [9],449.87 ± 18.67 ng/mL
same,Stability: RE,[1]; [9],12.47%
same,Stability: Measured,[1]; [10],1891.74 ± 134.38 ng/mL
same,Stability: RE,[1]; [10],18.23%
same,Stability: Measured,[1]; [11],1.81 ± 0.18 ng/mL
same,Stability: RE,[1]; [11],-9.59%
same,Stability: Measured,[1]; [12],438.01 ± 11.23 ng/mL
same,Stability: RE,[1]; [12],9.50%
same,Stability: Measured,[1]; [13],1768.72 ± 60.05 ng/mL
same,Stability: RE,[1]; [13],10.54%
same,solubility at 5 min,[2],> 10000 µg/mL
same,determination in rat plasma at the planned successive PK time points,[3],could be determined
same,detection in rat plasma,[3],could be detected
same,AUC(0-inf),[3]; 0.4 g/kg,340 ± 348 ng·h/mL
same,AUC(0-t),[3]; 0.4 g/kg,254 ± 236 ng·h/mL
same,MRT inf,[3]; 0.4 g/kg,12.8 ± 8.78 h
same,MRT last,[3]; 0.4 g/kg,8.88 ± 3.79 h
same,Tmax,[3]; 0.4 g/kg,9 ± 4.24 h
same,Cmax,[3]; [14],24.5 ± 4.04 ng/mL
same,half-life,[3]; [15],5.63 ± 5.88 h
same,AUC(0-inf),[3]; 0.8 g/kg,378 ± 56.4 ng·h/mL
same,AUC(0-t),[3]; 0.8 g/kg,281 ± 28.1 ng·h/mL
same,MRT inf,[3]; 0.8 g/kg,17.3 ± 2.01 h
same,MRT last,[3]; 0.8 g/kg,10.7 ± 2.31 h
same,Tmax,[3]; 0.8 g/kg,2.25 ± 3.25 h
same,Cmax,[3]; [16],> 20 ng/mL
same,Cmax,[3]; [17],37.2 ± 26.3 ng/mL
same,half-life,[3]; [18],> 2.6 h
same,half-life,[3]; [19],8.53 ± 4.42 h
same,Cltot,[3]; [20],624.2 ± 638.8 mL/min/kg
same,Cltot,[3]; [21],350.3 ± 310.5 mL/min/kg
same,Histopathology of heart tissue (H&E),[4]; [22],remarkably severe histological damage with extensive myocardial lysis and architecture wrecking; also recorded: extremely severe histological damage with extensive myocardial lysis and architecture wrecking
same,ECG (lead II) findings on the fifth day of the trial,[4],ST segment elevated
same,Papp(apical→basolateral),Caco-2 cell monolayers,> 0.1^c ×10^-6 cm/s
same,Papp(basolateral→apical),Caco-2 cell monolayers,> 0.1^c ×10^-6 cm/s
same,apparent permeability in Caco-2 cell monolayers,Caco-2 cell monolayers,> 10^-7 cm/s
